Laboratory results as given in patent US5750354A, “Lipoxin transport system and uses therefor” (priority 1994, dated 1998).
Where “and” joins values, the source holds several entries; their conditions need not be identical. Identical values can stand only once. Entries after “also recorded” stand apart in the source; their conditions may differ. Like-named read-outs stand apart in the source and are kept apart here.

Key:
lipoxin transport system [1] = conditions: not told
lipoxin transport system [2] = assay: [3H]LXA4 influx into human neutrophils (unidirectional tracer flux); conditions: for [3H]LXA4 Influx in presence of eicosanoid / IC50: uptake at 10 and 20 min; for effect on uptake of [3H]LXA4: each at 0.2-0.5 mM; for IC50: read-out: K0.5, concentration at which 50% of lipoxin transport is inhibited, drug 0-500 μM, Michaelis-Menten inhibition kinetics; for final [3H]LXA4 uptake (combined data) / initial [3H]LXA4 influx rate (combined data): combined data: Control, 0.4 mM SITS, 1 mM probenecid, Na+-free medium, high K+ medium; for effect on [3H]LXA4 influx: probenecid 1 mM, SITS 0.4 mM
human neutrophils [3] = test system: human neutrophils
[4] = target: T1, specific lipoxin receptors (Homo sapiens, UniProt P25090); assay: [3H]LXA4 ligand binding to human neutrophils
T1 sequence (P25090 1-351): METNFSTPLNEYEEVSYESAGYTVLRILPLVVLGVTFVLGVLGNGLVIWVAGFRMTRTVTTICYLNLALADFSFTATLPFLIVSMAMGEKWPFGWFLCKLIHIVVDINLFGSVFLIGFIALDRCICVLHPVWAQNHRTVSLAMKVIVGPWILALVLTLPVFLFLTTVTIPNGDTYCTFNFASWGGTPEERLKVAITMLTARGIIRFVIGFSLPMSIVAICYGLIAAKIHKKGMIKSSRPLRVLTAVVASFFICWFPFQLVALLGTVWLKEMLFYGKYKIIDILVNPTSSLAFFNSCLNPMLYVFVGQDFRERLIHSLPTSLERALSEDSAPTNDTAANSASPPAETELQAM
Procedure: (§1) Influx rates were calculated by fitting the data points to a single exponential equation (Eq. 1). Results have been taken from three experiments based upon duplicate determinations. […] Specific binding was taken as the difference between total and non-specific binding. […] Results are from three separate experiments, each performed in triplicate.

human neutrophils [5] = assay: [3H]LXA4 methyl ester influx into human neutrophils; assay type: cell-based; conditions: for effect of drugs on [3H]LXA4 ME influx: DISA 0.5 mM, PCP 0.4 mM, mersalyl 0.5 mM
Procedure: Incubations were performed at 37° C. in capped, plastic tubes (Falcon Plastics, Oxnard, Calif.) under various experimental conditions (neutrophils 15-20×10^6 /ml). […] At stated intervals, duplicate aliquots of the cell suspensions were layered onto 0.5 ml of silicone oil (Versilube F-5, General Electric Corp., Waterford, N.Y.) contained in 1.5 ml plastic tubes and centrifuged for 1 min at 8,000 g in a microcentrifuge (Beckman Instruments, Fullerton, Calif.).
The aqueous and oil phases were aspirated and discarded. […] Influx is expressed here as fmol/10^6 cells/min whereas flux rates in all previous work from our laboratory (L.S.) have been reported in meq/liter of cell water.min.
as §1

sulfate carrier = conditions: cited from earlier work
lipoxin transport system [6] = assay: Irreversible inhibition of [3H]LXA4 influx after pretreatment of neutrophils with sulfhydryl-reactive agents; assay type: cell-based, human
[7] = test system: unstimulated human erythrocytes; assay: [3H]LXA4 uptake into erythrocytes; assay type: cell-based; conditions: 0.5 mM DISA, 5 nM LXA4
Procedure: Red Blood Cells (RBC): RBC were obtained directly from the heparinized blood of normal human donors. During repeated (four) washing steps, the uppermost portion of the cell pellets was aspirated and discarded to remove residual minor contamination of buffy coat cells.
(§2) Human red cells, lymphocytes, and platelets were isolated from peripheral blood as described under Methods. Undifferentiated HL-60 cells were grown in culture according to standard protocols. Differentiated HL-60 cells were obtained by exposing cells to 1 μM retinoic acid for 5 days in culture. After harvesting and isolation, all cells were kept in the standard medium for 1 hour at 37° C. prior to assay. […] Results represent the means±SEM of three-four separate experiments for each cell type.

[8] = test system: undifferentiated HL-60 cells; assay: [3H]LXA4 uptake into undifferentiated HL-60 cells; assay type: cell-based, human; conditions: 0.5 mM DISA, 5 nM LXA4
Procedure: (§3) HL-60 Cells: HL-60 cells were seeded into RPMI medium supplemented with 100 U/ml penicillin, 100 μg/ml streptomycin, and 10% fetal calf serum (Hyclone, Logan, Utah) and grown at 37° C. in 250 ml flasks in a 5% CO2 /95% air atmosphere. Cells were induced to differentiate toward a neutrophil-like phenotype by exposure to 1 μM retinoic acid for 5 days.
as §2

[9] = test system: retinoic acid-induced HL-60 cells; assay: [3H]LXA4 uptake into retinoic acid-induced HL-60 cells; assay type: cell-based, human; conditions: 0.5 mM DISA, 5 nM LXA4
Procedure: as §3, §2

[10] = test system: unstimulated human lymphocytes; assay: [3H]LXA4 uptake into lymphocytes; assay type: cell-based; conditions: 0.5 mM DISA, 5 nM LXA4
Procedure: Lymphocvtes: The lymphocyte-rich interface layer was taken at the Ficoll-Hypaque gradient step of the neutrophil purification procedure. Platelets were removed by slow-speed centrifugation (see below) and contaminating monocytes and neutrophils by adherence to plastic Petri dishes for 1 hour at 37 ° C.
as §2

[11] = test system: unstimulated human platelets; assay: [3H]LXA4 uptake into platelets; assay type: cell-based; conditions: 0.5 mM DISA, 5 nM LXA4
Procedure: Platelets: Platelets were purified to homogeneity from acid citrate dextrose-treated blood according to established protocols (Romano, M. and Serhan, C. N. (1992) Biochemistry 31:8269-8277).
as §2

[12] = combined: 0.5 mM DISA, 0.4 mM PCP, pHo 8.40
[13] = combined: 0.5 mM mersalyl, pHo 6.40
[14] = 0.5 mM drug, + unlabeled LXA4 0.3 μM

## CCCCC/C=C\C[C@@H](O)/C=C/C=C/C=C\[C@@H](O)CCCC(=O)O [LTB4, (5S,12R)-dihydroxy-6,14-cis-8,10-trans-eicosatetraenoic acid]
Lipoxin transport system [1]
  transport by the lipoxin transport system: not transported
Lipoxin transport system [2]; eicosanoid 10 nM
  [3H]LXA4 Influx in presence of eicosanoid: 0.67 ± 0.04 fmol/10^6 cells/min
Lipoxin transport system [2]; eicosanoid 30 nM
  [3H]LXA4 Influx in presence of eicosanoid: 0.64 ± 0.04 fmol/10^6 cells/min
Lipoxin transport system [2]; eicosanoid 100 nM
  [3H]LXA4 Influx in presence of eicosanoid: 0.70 ± 0.06 fmol/10^6 cells/min

## Oc1c(Cl)c(Cl)c(Cl)c(Cl)c1Cl [PCP, pentachlorophenol]
Human neutrophils [3]; [12]
  efflux final value (relative cell content, combined data set): 0.46±0.02
  efflux rate coefficient (combined data set): 0.098 ± 0.008 min⁻¹
[4]
  [3H]LXA4 Binding, non-specific, in presence of drug: 0.36 ± 0.04 fmol/10^6 cells
  [3H]LXA4 Binding, total, in presence of drug: 1.18 ± 0.04 fmol/10^6 cells
  effect on binding of lipoxin to specific receptors: not inhibitable
Lipoxin transport system [2]; 0.4 mM drug
  inhibition of [3H]LXA4 influx: 97% and > 80%
Lipoxin transport system [2]; 0.4 mM drug, 5 nM LXA4
  initial [3H]LXA4 influx rate in presence of drug: 0.015±0.004 fmol/10^6 cells/min
Lipoxin transport system [2]
  effect on uptake of [3H]LXA4: inhibited the uptake
  IC50: 25 ± 5 µM
Human neutrophils [5]; 0.4 mM drug
  [3H]LXA4 ME Influx in presence of drug: 439 ± 63 fmol/10^6 cells/min
Human neutrophils [5]
  effect of drugs on [3H]LXA4 ME influx: completely resistant

## CCCN(CCC)S(=O)(=O)c1ccc(C(=O)O)cc1 [probenecid]
Sulfate carrier
  sensitivity of the sulfate carrier: very sensitive
Lipoxin transport system [2]; 5 nM LXA4
  final [3H]LXA4 uptake (combined data): 7.26±0.26 fmol/10^6 cells
  initial [3H]LXA4 influx rate (combined data): 0.57±0.09 fmol/10^6 cells/min
Lipoxin transport system [2]
  effect on [3H]LXA4 influx: no apparent impact; also recorded: not inhibited

## CC(=O)Nc1ccc(C=Cc2ccc(N=C=S)cc2S(=O)(=O)O)c(S(=O)(=O)O)c1 [SITS, 4-acetamido-4'-isothiocyanostilbene-2,2'-disulfonic acid]
Sulfate carrier
  sensitivity of the sulfate carrier: very sensitive
Lipoxin transport system [2]; 5 nM LXA4
  final [3H]LXA4 uptake (combined data): 7.26±0.26 fmol/10^6 cells
  initial [3H]LXA4 influx rate (combined data): 0.57±0.09 fmol/10^6 cells/min
Lipoxin transport system [2]
  effect on [3H]LXA4 influx: no apparent impact; also recorded: not inhibited

## COC(CNC(=O)c1ccccc1OCC(=O)O)[CH2][Hg][OH] (centres unmarked) [mersalyl]
Human neutrophils [3]; [13]
  efflux final value (relative cell content, combined data): 0.56±0.03
  efflux rate coefficient (combined data): 0.079 ± 0.012 min⁻¹
[4]
  effect on binding of lipoxin to specific receptors: not inhibitable
[4]; [14]
  [3H]LXA4 Binding, non-specific, in presence of drug: 0.39 ± 0.03 fmol/10^6 cells
[4]; 0.5 mM drug, no unlabeled LXA4
  [3H]LXA4 Binding, total, in presence of drug: 1.13 ± 0.05 fmol/10^6 cells
Lipoxin transport system [2]; 0.5 mM drug
  inhibition of [3H]LXA4 influx: 82% and > 80%
Lipoxin transport system [2]; 0.5 mM drug, 5 nM LXA4
  initial [3H]LXA4 influx rate in presence of drug: 0.10±0.01 fmol/10^6 cells/min
Lipoxin transport system [2]
  effect on uptake of [3H]LXA4: inhibited the uptake
  IC50: 112 ± 33 µM
Lipoxin transport system [6]
  % Inhibition of Transport (irreversible): ~ 65% and 67 ± 5%
Human neutrophils [5]; 0.5 mM drug
  [3H]LXA4 ME Influx in presence of drug: 500 ± 184 fmol/10^6 cells/min
Human neutrophils [5]
  effect of drugs on [3H]LXA4 ME influx: completely resistant

## O=C(O)c1cc(I)cc(I)c1O [DISA, 3,5-diiodo-salicylic acid]
Human neutrophils [3]; 500 µM
  efflux final value (relative cell content, combined data set): 0.46±0.02
  efflux rate coefficient (combined data set): 0.098 ± 0.008 min⁻¹
[4]
  effect on binding of lipoxin to specific receptors: not inhibitable
[4]; [14]
  [3H]LXA4 Binding, non-specific, in presence of drug: 0.41 ± 0.05 fmol/10^6 cells
[4]; 0.5 mM drug, no unlabeled LXA4
  [3H]LXA4 Binding, total, in presence of drug: 1.23 ± 0.08 fmol/10^6 cells
[7]
  [3H]LXA4 Uptake Rate in the presence of DISA: 0.0019 ± 0.0008 fmol/10^6 cells/min
[8]
  [3H]LXA4 Uptake Rate in the presence of DISA: 0.12 ± 0.02 fmol/10^6 cells/min
Lipoxin transport system [2]; 100 nM FMLP + DISA
  inhibition of FMLP-enhanced [3H]LXA4 uptake: completely sensitive to inhibition
Lipoxin transport system [2]; 100 nM PMA + DISA
  inhibition of PMA-induced enhancement of [3H]LXA4 influx: competely sensitive to inhibition
Lipoxin transport system [2]; 0.5 mM DISA
  [3H]LXA4 uptake by 1 min of incubation: 2.9 fmol/10^6 cells
  effect on transport system-mediated component of uptake: completely blocks; also recorded: markedly sensitive; also recorded: blocked
Lipoxin transport system [2]; 0.5 mM DISA, 5 nM LXA4, not distinguishable from zero
  slope of straight-line fit of [3H]LXA4 uptake in presence of drug: 0.0046±0.0051 fmol/10^6 cells/min
Lipoxin transport system [2]; 0.5 mM DISA, 1-30 min
  cell-associated [3H]LXA4, average of all data points: 2.88 fmol/10^6 cells
Lipoxin transport system [2]; 0.5 mM drug
  inhibition of [3H]LXA4 influx: > 80%
Lipoxin transport system [2]
  effect on uptake of [3H]LXA4: inhibited the uptake
  IC50: 12 ± 2 µM
[9]
  [3H]LXA4 Uptake Rate in the presence of DISA: 0.08 ± 0.02 fmol/10^6 cells/min
[10]
  [3H]LXA4 Uptake Rate in the presence of DISA: 0.0053 ± 0.0036 fmol/10^6 cells/min
[11]
  [3H]LXA4 Uptake Rate in the presence of DISA: -0.0005 ± 0.0015 fmol/10^6 cells/min
Human neutrophils [5]; 0.5 mM drug
  [3H]LXA4 ME Influx in presence of drug: 481 ± 170 fmol/10^6 cells/min
Human neutrophils [5]
  effect of drugs on [3H]LXA4 ME influx: completely resistant

## O=C1OC2(c3ccc(N4C(=O)C=CC4=O)cc31)c1cc(Br)c(O)c(Br)c1Oc1c2cc(Br)c(O)c1Br [Eosin-5-maleimide, eosin-5-maleimide]
Lipoxin transport system [6]; 0.50 mM, pretreatment 30 min at 4° C., washed, influx at 37° C.
  % Inhibition of Transport (irreversible): 19 ± 6%

## CCCCC/C=C\C\C=C/C=C/C=C/[C@@H](SC[C@H](NC(=O)CC[C@H](N)C(=O)O)C(=O)NCC(=O)O)[C@@H](O)CCCC(=O)O [LTC4, (5S)-hydroxy-(6R)-S-glutathionyl-7,9-trans-11,14-cis-eicosatetraenoic acid]
Lipoxin transport system [1]
  transport by the lipoxin transport system: not transported
Lipoxin transport system [2]; eicosanoid 10 nM
  [3H]LXA4 Influx in presence of eicosanoid: 0.70 ± 0.05 fmol/10^6 cells/min
Lipoxin transport system [2]; eicosanoid 30 nM
  [3H]LXA4 Influx in presence of eicosanoid: 0.76 ± 0.05 fmol/10^6 cells/min
Lipoxin transport system [2]; eicosanoid 100 nM
  [3H]LXA4 Influx in presence of eicosanoid: 0.78 ± 0.07 fmol/10^6 cells/min

## CCCCC/C=C\C\C=C/C=C/C=C/[C@@H](SC[C@H](N)C(=O)NCC(=O)O)[C@@H](O)CCCC(=O)O [LTD4, (5S)-hydroxy-(6R)-S-cysteinylglycyl-7,9-trans-11,14-ciseicosatetraenoic acid]
Lipoxin transport system [1]
  transport by the lipoxin transport system: not transported
Lipoxin transport system [2]; eicosanoid 10 nM
  [3H]LXA4 Influx in presence of eicosanoid: 0.63 ± 0.03 fmol/10^6 cells/min
Lipoxin transport system [2]; eicosanoid 30 nM
  [3H]LXA4 Influx in presence of eicosanoid: 0.59 ± 0.04 fmol/10^6 cells/min
Lipoxin transport system [2]; eicosanoid 100 nM
  [3H]LXA4 Influx in presence of eicosanoid: 0.61 ± 0.03 fmol/10^6 cells/min
